Structures can show the parent of a compound that is named as a salt. Where two headings read alike, the source gives them in different places.
Experiments:
[1] = Intrinsic dissolution of compressed tablet, pH 7.0, 37° C. (Sirius inForm); type: physicochemical; details: pH 7.0, 0.15 M NaCl, 37° C.
Description: The dissolution assay (pH-dependent sample dissolution) was investigated using the Sirius inForm.
Dissolution of a compressed tablet of the compound was monitored in a pH 7.0 aqueous dissolution experiment (0.15 M NaCl) at 37° C. using UV-absorption spectroscopy in 2 hour experiments. A tablet with a diameter of 3 mm, requiring approximate weights of 10 mg was compressed under a weight of 100 kg load force. Only one face of the tablet was exposed to the dissolution medium, which contained a 0.01 M acetate/phosphate buffer system to minimise perturbation of the experimental pH from dissolution of the drug.
Stirring of the solution was continuous and at a constant rate of 100 rpm. The absorption data was converted to absolute sample weights using previously determined, pH-dependent, molar extinction coefficients. An appropriate wavelength range was chosen to ensure that spectroscopic data with an absorption value of <1.3 was analysed, avoiding erroneous dissolution results due to saturation of the UV light source.

[2] = Aerosol performance of DPI formulations (Cyclohaler, NGI); type: physicochemical; details: for †Measured Mass of 1% w/w Blend Delivered per capsule / ††RPL554 Emitted (μg) per capsule (B): Cyclohaler; for †Measured Mass of 1% w/w Blend Delivered per capsule: 5 capsules containing 20 mg powder blend, mass from weight change of capsule-loaded device; for ††RPL554 Emitted (μg) per capsule (B): NGI, mass determined from HPLC analysis of recovered samples; for ††RPL554 Emitted (μg) per capsule (B) / Calculated RPL554 Content (μg) per capsule (A): as RPL554 base; for Calculated RPL554 Content (μg) per capsule (A): calculated from delivered blend mass and measured blend content
Description: Capsules were hand filled with 20 mg of the 1% w/w RPL554 free base or salt variants: lactose blends, i.e. 200 μg salt per capsule, the fill weight of each capsule was recorded. Due to differences in the molecular weights of the RPL554 salt forms, the amount of RPL554 emitted per actuation varied as a function of molecular weight. The formulations were prepared with no adjustment for differences in molecular weight of the salts.
The powders were delivered via the Cyclohaler® DPI (PCH Pharmachemie, BV, The Netherlands). The Cyclohaler® DPI is a low resistance device and was operated at a flow rate of 90 L/min for 2.7 seconds. The cut off diameters for the NGI collection stages were calculated for the 90 L/min flow rate using the NGI User Guide (MSP Corporation, 2008).
The ED, FPD and FPF were determined from inertial impaction tests performed following the deposition of 5 capsules of each formulation into the NGI. For each capsule tested the combined weight of the Cyclohaler® and capsule was determined before and after operation to check that the dose had been delivered. The NGI was fitted with a pre-separator for these determinations. The central cup of the pre-separator was filled with 15 mL of diluent. Following deposition, the solution was recovered in a 20 mL volumetric flask and made up to volume with diluent. RPL554 was quantitatively recovered from the device, induction port and each of the NGI collection stages with 10 mL of diluent.
The volume of diluent used for each sample was selected to ensure RPL554 concentrations were above the limit of quantitation.

[3] = Solubility of RPL554 and salts in pMDI propellant systems; type: physicochemical; details: for Solubility RPL554 (μg/g) / Calculated RPL554 solubilised (%) / Calculated Solubilised RPL554 μg per 50 μL actuation: in HFA 134; for Solubility RPL554 (μg/g): BLQ = below limit of quantitation (0.06 μg/mL)
Description: Quantitative assessment of the solubility of RPL554 and salt variants in the propellant systems of selected pMDI formulations (three replicates of each formulation) was performed. pMDIs were directly coupled to an adaptor fitted with a 0.20 μm filter unit connected, in series to a 21 G needle, which was inserted via a rubber septum, into a cooled multi-dose glass vial. A 19 G filter needle was inserted through the septum to aid evaporation of propellant from the vial. Prior to the filtration process the vial was cooled in a mixture of dry ice and acetone to ensure that the pressure within the vial was reduced in order to facilitate collection of the output from the pMDI. Ten consecutive actuations of the pMDI were fired through the filter and collected in the vial. Between actuations the canister was shaken for approximately 10 seconds. The pMDI unit was weighed before and after the filtering procedure. The filtrate was stored at room temperature and allowed to evaporate to dryness.
Samples were recovered by carefully rinsing the inside of the vials with 1 mL of recovery solution before transfer to HPLC vials for analysis. The estimated % of RPL554 solubilised within the canister was calculated from the starting mass of RPL554 within the canisters, which in turn was calculated using the theoretical molecular weight values of the RPL554 free base and salt variants shown in Table 13. The theoretical molecular weight estimates of the salts were provided by Verona.

[4] = RPL554 content and content uniformity of 1% w/w lactose powder blends; type: physicochemical; details: for Measured Blend Content (% Theoretical): 1% w/w RPL554 variant: lactose powder blend, expressed as RPL554 base; for **Adjusted RPL554 Content per capsule: per 20 mg capsule of 1% w/w lactose blend, adjusted for measured blend content (% theoretical), as RPL554 base
Description: Batches (approximately 5 g) of 1% w/w RPL554 free base or salt variants: lactose blends were prepared. In brief, the RPL554 free base or salt plus a small quantity of lactose was passed through a 38 μm sieve. The sieved material plus the remaining lactose was mixed in a glass mortar prior to transfer to a stainless steel screw cap jar and further mixing (10 minutes at 46 rpm) conducted using a Turbula blender. The composition of the dry powder blend was 0.05 g API and 4.95 g lactose.
In order to determine the content uniformity of the blends, aliquots (approx. 20 mg) of powder were sampled from each blend, accurately weighed, and diluted to volume in 10 mL volumetric flasks with diluent. The flasks were sonicated for 3 minutes before samples were transferred to HPLC vials for analysis.

[5] = Primary particle size analysis by laser light diffraction (Mastersizer 2000); type: physicochemical; details: micronised, mean n=3
Description: A Mastersizer 2000 fitted with a Scirocco 2000 dry powder dispersion unit (Malvern Instruments Ltd, UK) was used to analyse the primary particle size of the micronised RPL554 and salt variants. The salts (50 mg) were automatically sampled via a vibrating feed control at a feeder rate of 60% and dispersed in compressed air at a pressure of 3 bar.

[6] = Physico-chemical characteristics of salt candidates: solubility in water, pH of aqueous suspension/solution, form post water maturation
Description: The physico-chemical characteristics of the salt candidates were determined.

[7] = Solubility of RPL554 salts in saline solutions, water and aqueous buffer solutions at 25° C. (HPLC); type: physicochemical; details: 24 hours; for Solubility as RPL554 (mg/ml) in Water: deionised water
Description: The behaviour of salts of RPL554 were examined under the following conditions: • Phosphate buffered to pH 3.5 in saline, 0.9% w/w at 25° C. • Acetate buffered to pH 4.5 in saline, 0.9% w/w at 25° C. • Citro-Phosphate buffered to pH 4.5 in saline, 0.9% w/w at 25° C. • Phosphate buffered to pH 6.5 in saline, 0.9% w/w at 25° C. • Saline, 0.7, 0.9 and 1.1% w/w at 25° C. • Deionised water at 25° C.
RPL554 salts and RPL554, ca 50 mg, were suspended in the various aqueous media, 1 ml, with agitation at the specified temperatures for 24 hours. The solids were isolated and dried in vacuo at 45° C. The retained filtrates were examined by HPLC.
Additional RPL554 methane sulfonate salt, ca 50 mg, was charged to the water mixtures at 25° C. and 37.5° C. in order to afford a suspension. In all other cases, suspensions were obtained.
The solubility of the RPL554 was determined by HPLC using a single point calibration and is expressed as RPL554 and not as the salt and are detailed in Table 6 and Table 7 for the various conditions utilised.

[8] = HFA 134a: 227: 10% Ethanol: 0.1% Tween
[9] = in HFA 134 with Ethanol/Tween, listed as Free Base
[10] = listed as hydrobromide salt, hydrobromide
[11] = in HFA 134 with Ethanol/Tween, hydrobromide

In the case of `COc1cc2c(cc1OC)-c1c/c(=N\c3c(C)cc(C)cc3C)n(CCNC(N)=O)c(=O)n1CC2` [RPL554, 9,10-dimethoxy-2-(2,4,6-trimethylphenylimino)-3-(N-carbamoyl-2-aminoethyl)-3,4,6,7-tetrahydro-2H-pyrimido[6,1-a]isoquinolin-4-one], the “Mass of salt (μg) dissolved after 2 hours, Average” value ([1]; listed as free base) is reported as 13.5 µg, the “Mass of salt (μg) dissolved after 2 hours, Test 1” value ([1]; listed as free base) is reported as 10.0 µg and the “Mass of salt (μg) dissolved after 2 hours, Test 2” value ([1]; listed as free base) is reported as 17.0 µg. For the same compound, the “†Measured Mass of 1% w/w Blend Delivered per capsule” value ([2]; listed as Free Base) was 20.12 mg, the “††RPL554 Emitted (μg) per capsule (B)” value ([2]; listed as Free Base) was 133.59 µg and the “Calculated RPL554 Content (μg) per capsule (A)” value ([2]; listed as Free Base) was 194.03 µg. For the same compound, the “Estimated Solubilised RPL554 μg per 50 μL actuation” value [3, 8] was 1.06 µg, the “Solubility RPL554” value [3, 8] was 16.11 µg/g and the “Estimated RPL554 solubilised (%)” value ([3]; HFA 134a: 227: 10% Ethanol: 0.1% Tween, listed as Free base) was 0.53%. The “Solubility RPL554 (μg/g)” value ([3]; listed as Free Base) was “BLQ”, the “Calculated RPL554 solubilised (%)” value ([3]; listed as Free Base) was “BLQ” and the “Calculated Solubilised RPL554 μg per 50 μL actuation” value ([3]; listed as Free Base) was “BLQ”. For the same compound, the “Estimated RPL554 solubilised (%)” value [3, 9] was 0.56%, the “Estimated Solubilised RPL554 μg per 50 μL actuation” value [3, 9] was 1.12 µg and the “Solubility RPL554” value [3, 9] was 16.45 µg/g. For the same compound, the “Measured Blend Content (% Theoretical)” value ([4]; listed as Free Base) was 96.44 % Theoretical, the “**Adjusted RPL554 Content per capsule” value ([4]; listed as Free Base) was 192.87 µg and the “D (0.1) (μm)” value ([5]; listed as Free base) was 0.58 μm. The “D (0.5) (μm)” value ([5]; listed as Free base) was 1.37 μm and the “D (0.9) (μm)” value ([5]; listed as Free base) was 3.00 μm.

With `COc1cc2c(cc1OC)-c1c/c(=N\c3c(C)cc(C)cc3C)n(CCNC(N)=O)c(=O)n1CC2` [Sulfuric - ethanol solution] the “pH of aqueous suspension/solution” value [6] was 3.28.

In the case of `COc1cc2c(cc1OC)-c1c/c(=N\c3c(C)cc(C)cc3C)n(CCNC(N)=O)c(=O)n1CC2` [Hydrobromide, RPL554 hydrobromide], the “pH of aqueous suspension/solution” value ([6]; listed as HBr, hydrobromide) is reported as 3.20, the “Mass of salt (μg) dissolved after 2 hours, Average” value [1, 10] is reported as 35.3 µg and the “Mass of salt (μg) dissolved after 2 hours, Test 1” value [1, 10] is reported as 30.4 µg. For the same compound, the “Mass of salt (μg) dissolved after 2 hours, Test 2” value [1, 10] was 40.1 µg, the “†Measured Mass of 1% w/w Blend Delivered per capsule” value ([2]; hydrobromide) was 19.96 mg and the “††RPL554 Emitted (μg) per capsule (B)” value ([2]; hydrobromide) was 104.28 µg. For the same compound, the “Calculated RPL554 Content (μg) per capsule (A)” value ([2]; hydrobromide) was 142.29 µg, the “Solubility RPL554 (μg/g)” value ([3]; hydrobromide) was “BLQ” and the “Calculated RPL554 solubilised (%)” value ([3]; hydrobromide) was “BLQ”. The “Calculated Solubilised RPL554 μg per 50 μL actuation” value ([3]; hydrobromide) was “BLQ”, the “Estimated RPL554 solubilised (%)” value [3, 11] was 3.74% and the “Estimated Solubilised RPL554 μg per 50 μL actuation” value [3, 11] was 6.40 µg. The “Solubility RPL554” value [3, 11] was 96.27 µg/g, the “Measured Blend Content (% Theoretical)” value ([4]; hydrobromide) was 83.37 % Theoretical and the “**Adjusted RPL554 Content per capsule” value ([4]; hydrobromide) was 142.58 µg. The “Solubility as RPL554 (mg/ml) in 0.7 w/w % Saline” value ([7]; hydrobromide) was 0.95 mg/mL, the “Solubility as RPL554 (mg/ml) in 0.9 w/w % Saline” value ([7]; hydrobromide) was 0.82 mg/mL and the “Solubility as RPL554 (mg/ml) in 1.1 w/w % Saline” value ([7]; hydrobromide) was 0.66 mg/mL. The “Solubility as RPL554 (mg/ml) in Water” value ([7]; hydrobromide) was 3.43 mg/mL, the “D (0.1) (μm)” value ([5]; hydrobromide) was 0.64 μm and the “D (0.5) (μm)” value ([5]; hydrobromide) was 1.52 μm. For the same compound, the “D (0.9) (μm)” value ([5]; hydrobromide) was 3.23 μm.

For `COc1cc2c(cc1OC)-c1c/c(=N\c3c(C)cc(C)cc3C)n(CCNC(N)=O)c(=O)n1CC2` [Phosphate, RPL554 phosphate], the “pH of aqueous suspension/solution” value ([6]; listed as Phosphoric) was 3.08, the “Solubility as RPL554 (mg/ml) in 0.7 w/w % Saline” value [7] was 7.22 mg/mL and the “Solubility as RPL554 (mg/ml) in 0.9 w/w % Saline” value [7] was 4.78 mg/mL. For the same compound, the “Solubility as RPL554 (mg/ml) in 1.1 w/w % Saline” value [7] was 2.86 mg/mL and the “Solubility as RPL554 (mg/ml) in Water” value [7] was 41.84 mg/mL.

From patent US11491155B2, “Salt of a pyrimido[6,1-A]isoquinolin-4-one compound” (VERONA PHARMA PLC, priority 2015, dated 2022)
